Target: IgE-Tb / FcεRIα-Y131A-AF488 (Homo sapiens, UniProt P01854)
Assay: IgE-Tb / FcεRIα-Y131A-AF488 FRET assay (protocol for examples 1 to 233)
Format: binding
Conditions: examples 1 to 233: 5 nM IgE-Tb, 25 nM FcεRIα-Y131A-AF488, incubated 2 hours at room temperature; read-out: Y131A FRET IC50 range
How it was run: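 Compounds (top final concentration usually 10 μM, 3-fold, 10 points, 2% DMSO) incubated 2 h at room temperature with IgE-Tb (5 nM) and FcεRIα-Y131A-AF488 (25 nM). Background from 200 nM unlabelled receptor subtracted; FRET ratio 520/495 nm after 330 nm excitation gave percent inhibition, fitted four-parameter for IC50.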

IgE-Tb / FcεRIα-Y131A-AF488, sequence (P01854 1-427 limits assumed, stated change not applied): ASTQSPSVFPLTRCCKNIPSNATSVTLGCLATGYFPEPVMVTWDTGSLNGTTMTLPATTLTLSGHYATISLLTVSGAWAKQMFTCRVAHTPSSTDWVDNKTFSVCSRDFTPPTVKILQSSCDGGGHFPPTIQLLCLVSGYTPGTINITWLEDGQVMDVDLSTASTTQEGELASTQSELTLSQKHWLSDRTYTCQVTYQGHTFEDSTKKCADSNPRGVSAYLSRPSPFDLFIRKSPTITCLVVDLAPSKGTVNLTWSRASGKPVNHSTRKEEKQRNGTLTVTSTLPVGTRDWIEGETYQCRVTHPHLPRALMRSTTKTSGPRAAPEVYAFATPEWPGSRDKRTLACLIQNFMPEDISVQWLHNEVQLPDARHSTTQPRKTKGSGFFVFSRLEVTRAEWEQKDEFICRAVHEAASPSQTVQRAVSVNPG

| Structure (SMILES) | IC50 [nM] |
| --- | --- |
| CCNc1nnc(C(F)(F)F)n1C1CCc2sc(NC(=O)C3CC3)c(C(=O)NCC3CC3)c2C1 (centres unmarked) [Example 202, 2-(Cyclopropanecarbonylamino)-N-(cyclopropylmethyl)-5-[3-(ethylamino)-5-(trifluoromethyl)-1,2,4-triazol-4-yl]-4,5,6,7-tetrahydrobenzothiophene-3-carboxamide] | 1000 to 10000 |
| O=C(NCC1CC1)c1c(NC(=O)C2CC2)sc2c1CC(Nc1nc(=O)cc[nH]1)CC2 (centres unmarked) [Example 203, 2-(Cyclopropanecarbonylamino)-N-(cyclopropylmethyl)-5-[(4-oxo-1H-pyrimidin-2-yl)amino]-4,5,6,7-tetrahydrobenzothiophene-3-carboxamide] | < 1000 |
| CC(C)NS(=O)(=O)NC1CCc2sc(NC(=O)C3CC3)c(C(=O)NCC3CC3)c2C1 (centres unmarked) [Example 204, 2-(Cyclopropanecarbonylamino)-N-(cyclopropylmethyl)-5-(isopropylsulfamoylamino)-4,5,6,7-tetrahydrobenzothiophene-3-carboxamide] | 1000 to 10000 |
| N#CN=C(NC1CCc2sc(NC(=O)C3CC3)c(C(=O)NCC3CC3)c2C1)NN1CCOCC1 (centres unmarked) [Example 205, 5-[[N′-Cyano-N-morpholino-carbamimidoyl]amino]-2-(cyclopropanecarbonylamino)-N-(cyclopropylmethyl)-4,5,6,7-tetrahydrobenzothiophene-3-carboxamide] | 1000 to 10000 |
| CC(=O)NC1CCc2sc(NC(=O)C3CC3)c(C(=O)NCC3CC3)c2C1 (centres unmarked) [Example 206, 5-Acetamido-2-(cyclopropanecarbonylamino)-N-(cyclopropylmethyl)-4,5,6,7-tetrahydrobenzothiophene-3-carboxamide] | 1000 to 10000 |
| CS(=O)(=O)NC1CCc2sc(NC(=O)C3CC3)c(C(=O)NCC3CC3)c2C1 (centres unmarked) [Example 207, 2-(Cyclopropanecarbonylamino)-N-(cyclopropylmethyl)-5-(methanesulfonamido)-4,5,6,7-tetrahydrobenzothiophene-3-carboxamide] | < 1000 |
| CONC(=NC#N)NC1CCc2sc(NC(=O)C3CC3)c(C(=O)NCC3CC3)c2C1 (centres unmarked) [Example 208, 5-[[N′-Cyano-N-methoxy-carbamimidoyl]amino]-2-(cyclopropanecarbonylamino)-N-(cyclopropylmethyl)-4,5,6,7-tetrahydrobenzothiophene-3-carboxamide] | < 1000 |
| COc1ccc(NC(=O)NC2CCc3sc(NC(=O)C4CC4)c(C(=O)NCC(C)C)c3C2)cc1 (centres unmarked) [Example 209, 2-(Cyclopropanecarbonylamino)-N-isobutyl-5-[(4-methoxyphenyl)carbamoylamino]-4,5,6,7-tetrahydrobenzothiophene-3-carboxamide] | < 1000 |
| O=C(NCC1CC1)c1c(NC(=O)C2CC2)sc2c1CC(Nc1nc(=O)cc(C(F)(F)F)[nH]1)CC2 (centres unmarked) [Example 210, 2-(Cyclopropanecarbonylamino)-N-(cyclopropylmethyl)-5-[[4-oxo-6-(trifluoromethyl)-1H-pyrimidin-2-yl]amino]-4,5,6,7-tetrahydrobenzothiophene-3-carboxamide] | < 1000 |
| CC1CCN(C(=O)c2c(NC(=O)C3CC3)sc3c2CC(NS(C)(=O)=O)CC3)C1 (centres unmarked) [Example 211, N-[5-(Methanesulfonamido)-3-(3-methylpyrrolidine-1-carbonyl)-4,5,6,7-tetrahydrobenzothiophen-2-yl]cyclopropanecarboxamide] | 1000 to 10000 |
| CCCNC(=O)c1c(NC(=O)C2CC2)sc2c1CC(NC(=O)Nc1ccc(OC(F)(F)F)cc1)CC2 (centres unmarked) [Example 212, 2-(Cyclopropanecarbonylamino)-N-propyl-5-[[4-(trifluoromethoxy)phenyl]carbamoylamino]-4,5,6,7-tetrahydrobenzothiophene-3-carboxamide] | < 1000 |
| CC(C)C(=O)Nc1nncn1[C@H]1CCc2sc(NC(=O)C3CC3)c(C(=O)NCC3CC3)c2C1 [Example 213, (5S)-2-(cyclopropanecarbonylamino)-N-(cyclopropylmethyl)-5-[3-(2-methylpropanoylamino)-1,2,4-triazol-4-yl]-4,5,6,7-tetrahydrobenzothiophene-3-carboxamide] | < 1000 |
| Cc1cc(N(C)c2nncn2[C@H]2CCc3sc(NC(=O)C4CC4)c(C(=O)NCC4CC4)c3C2)n(C)n1 [Example 214, (5S)-2-(cyclopropanecarbonylamino)-N-(cyclopropylmethyl)-5-[3-[(2,5-dimethylpyrazol-3-yl)-methyl-amino]-1,2,4-triazol-4-yl]-4,5,6,7-tetrahydrobenzothiophene-3-carboxamide] | 1000 to 10000 |
| Cc1cc(Nc2nncn2[C@H]2CCc3sc(NC(=O)C4CC4)c(S(=O)(=O)NCC4CC4)c3C2)n(C)n1 [Example 215, N-[(5S)-3-(cyclopropylmethylsulfamoyl)-5-[3-[(2,5-dimethylpyrazol-3-yl)amino]-1,2,4-triazol-4-yl]-4,5,6,7-tetrahydrobenzothiophen-2-yl]cyclopropanecarboxamide] | < 1000 |
| Cc1nnc(-c2ncn([C@H]3CCc4sc(NC(=O)C5CC5)c(C(=O)NCC5CC5)c4C3)c2N)o1 [Example 216, (5S)-5-[5-amino-4-(5-methyl-1,3,4-oxadiazol-2-yl)imidazol-1-yl]-2-(cyclopropanecarbonylamino)-N-(cyclopropylmethyl)-4,5,6,7-tetrahydrobenzothiophene-3-carboxamide] | < 1000 |
| Cc1cc(Nc2nncn2[C@H]2CCc3sc(NC(=O)C4CC4)c(C(=O)NCC4CC4)c3C2)[nH]n1 [Example 217, (5S)-2-(cyclopropanecarbonylamino)-N-(cyclopropylmethyl)-5-[3-[(3-methyl-1H-pyrazol-5-yl)amino]-1,2,4-triazol-4-yl]-4,5,6,7-tetrahydrobenzothiophene-3-carboxamide] | < 1000 |
| Cc1nn(C)cc1Nc1nncn1[C@H]1CCc2sc(NC(=O)C3CC3)c(C(=O)NCC3CC3)c2C1 [Example 218, (5S)-2-(cyclopropanecarbonylamino)-N-(cyclopropylmethyl)-5-[3-[(1,3-dimethylpyrazol-4-yl)amino]-1,2,4-triazol-4-yl]-4,5,6,7-tetrahydrobenzothiophene-3-carboxamide] | < 1000 |
| Cn1nc(C2CC2)cc1Nc1nncn1[C@H]1CCc2sc(NC(=O)C3CC3)c(C(=O)NCC3CC3)c2C1 [Example 219, (5S)-2-(cyclopropanecarbonylamino)-N-(cyclopropylmethyl)-5-[3-[(5-cyclopropyl-2-methyl-pyrazol-3-yl)amino]-1,2,4-triazol-4-yl]-4,5,6,7-tetrahydrobenzothiophene-3-carboxamide] | < 1000 |
| CC(C)c1cc(Nc2nncn2[C@H]2CCc3sc(NC(=O)C4CC4)c(C(=O)NCC4CC4)c3C2)n(C)n1 [Example 220, (5S)-2-(cyclopropanecarbonylamino)-N-(cyclopropylmethyl)-5-[3-[(5-isopropyl-2-methyl-pyrazol-3-yl)amino]-1,2,4-triazol-4-yl]-4,5,6,7-tetrahydrobenzothiophene-3-carboxamide] | < 1000 |
| Cn1nc(C(F)(F)F)cc1Nc1nncn1[C@H]1CCc2sc(NC(=O)C3CC3)c(C(=O)NCC3CC3)c2C1 [Example 221, (5S)-2-(cyclopropanecarbonylamino)-N-(cyclopropylmethyl)-5-[3-[[2-methyl-5-(trifluoromethyl)pyrazol-3-yl]amino]-1,2,4-triazol-4-yl]-4,5,6,7-tetrahydrobenzothiophene-3-carboxamide] | < 1000 |
| Cc1cc(Nc2nncn2[C@H]2CCc3sc(NC(=O)C4CC4)c(C(=O)NCC4CC4)c3C2)n(C(C)C)n1 [Example 222, (5S)-2-(cyclopropanecarbonylamino)-N-(cyclopropylmethyl)-5-[3-[(2-isopropyl-5-methyl-pyrazol-3-yl)amino]-1,2,4-triazol-4-yl]-4,5,6,7-tetrahydrobenzothiophene-3-carboxamide] | < 1000 |
| Cc1cc(Nc2nncn2[C@H]2CCc3sc(NC(=O)C4CC4)c(C(=O)NCC4CC4)c3C2)n(C2CCOC2)n1 (stereo partly drawn) [Example 223, (5S)-2-(cyclopropanecarbonylamino)-N-(cyclopropylmethyl)-5-[3-[(5-methyl-2-tetrahydrofuran-3-yl-pyrazol-3-yl)amino]-1,2,4-triazol-4-yl]-4,5,6,7-tetrahydrobenzothiophene-3-carboxamide] | < 1000 |
| Cn1nccc1Nc1nncn1[C@H]1CCc2sc(NC(=O)C3CC3)c(C(=O)NCC3CC3)c2C1 [Example 224, (5S)-2-(cyclopropanecarbonylamino)-N-(cyclopropylmethyl)-5-[3-[(2-methylpyrazol-3-yl)amino]-1,2,4-triazol-4-yl]-4,5,6,7-tetrahydrobenzothiophene-3-carboxamide] | < 1000 |
| CCn1nc(C)cc1Nc1nncn1[C@H]1CCc2sc(NC(=O)C3CC3)c(C(=O)NCC3CC3)c2C1 [Example 225, (5S)-2-(cyclopropanecarbonylamino)-N-(cyclopropylmethyl)-5-[3-[(2-ethyl-5-methyl-pyrazol-3-yl)amino]-1,2,4-triazol-4-yl]-4,5,6,7-tetrahydrobenzothiophene-3-carboxamide] | < 1000 |
| Cc1cc(Nc2nncn2[C@H]2CCc3sc(NC(=O)C4CC4)c(C(=O)NCC4CC4)c3C2)n(C2CC2)n1 [Example 226, (5S)-2-(cyclopropanecarbonylamino)-N-(cyclopropylmethyl)-5-[3-[(2-cyclopropyl-5-methyl-pyrazol-3-yl)amino]-1,2,4-triazol-4-yl]-4,5,6,7-tetrahydrobenzothiophene-3-carboxamide] | < 1000 |
| COc1nn(C)cc1Nc1nncn1[C@H]1CCc2sc(NC(=O)C3CC3)c(C(=O)NCC3CC3)c2C1 [Example 227, (5S)-2-(cyclopropanecarbonylamino)-N-(cyclopropylmethyl)-5-[3-[(3-methoxy-1-methy-pyrazol-4-yl)amino]-1,2,4-triazol-4-yl]-4,5,6,7-tetrahydrobenzothiophene-3-carboxamide] | < 1000 |
